Assay results published in patent US12391681B2, “(R)-3-(3-chloro-5-fluoro-2-((4-(1h-pyrazol-1-yl)-2-methylquinolin-8-yloxy)methyl)phenyl)morpholine derivatives and related compounds as bradykinin (BK) B2 receptor antagonist for treating skin diseases” (Pharvaris GmbH, priority 2019, dated 2025).

Molecular target: T1, human bradykinin B2 receptor (hB2R) (Homo sapiens, UniProt P30411)
T1 sequence (P30411 1-391): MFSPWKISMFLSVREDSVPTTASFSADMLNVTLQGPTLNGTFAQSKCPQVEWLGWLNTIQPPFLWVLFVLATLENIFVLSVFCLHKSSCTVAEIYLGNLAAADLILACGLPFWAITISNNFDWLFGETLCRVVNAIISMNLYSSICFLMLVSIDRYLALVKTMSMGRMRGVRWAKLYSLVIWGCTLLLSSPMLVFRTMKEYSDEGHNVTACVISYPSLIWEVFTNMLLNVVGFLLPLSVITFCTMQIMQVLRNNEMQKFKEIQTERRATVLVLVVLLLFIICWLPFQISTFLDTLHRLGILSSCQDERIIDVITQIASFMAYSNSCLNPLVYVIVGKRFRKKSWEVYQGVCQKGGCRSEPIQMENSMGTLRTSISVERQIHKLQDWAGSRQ
Assay: cell-based human bradykinin B2 receptor calcium mobilization (hB2R-CaM) assay
Conditions: antagonistic activity; HTS041C cells; bradykinin at EC80; 25 min preincubation at 37° C.; read-out: IC50-value towards human bradykinin B2 receptor (hB2R)
Description: The following cell-based human bradykinin B2 receptor calcium mobilization (hB2R-CaM) assay was used to determine the antagonistic activity of compounds selected from the example compounds Nos. 1 to 13 towards human bradykinin B2 receptor (hB2R). The assay is defined herein as a standard in vitro B2 receptor activity assay, which can be used to determine IC50 values of the compounds according to the present invention, e. g. the compounds shown in Examples 1-4.
The antagonistic activity of compounds according to the present invention was investigated with the hB2R-CaM assay using the B2 Bradykinin Receptor Stable Cell Line HTS041C (Eurofins, St. Charles MO) and the FLIPR Calcium 6 Assay Kit (Molecular Devices, Wokingham, UK) according to the instructions of the providers. CaM assay measurements were performed with a Flexstation 3 System (Molecular Devices) which allows the precise addition of compounds (B2R antagonists) and bradykinin (B2R agonist) to the cells and adjacent continuous recording of the time-dependent CaM assay signals.
HTS041C cells were cultured in high glucose DMEM cell culture medium (Lonza) supplemented with 10% heat-inactivated FBS (PAN Biotech), 10 mM HEPES, Penicillin/Streptomycin (200 U/mL, 200 μg/mL), 1× non-essential amino acids (Lonza), and 250 μg/mL G418 (Invivogen) in cell incubator at 37° C. in a 5% CO2 atmosphere. One day before the CaM assay experiments cells were seeded in 200 μL DMEM cell culture medium with reduced FBS (5%) and without G418 on clear bottom black 96 well plates (ThermoFisher #165305). Cell starvation was carried out by incubation (37° C., 5% CO2) of 70.000 cells/well for 24 h to 28 h. Immediately prior calcium dye-loading the medium was carefully aspirated and cells were washed with Hank's balanced salt solution (HBSS, Gibco) containing Ca^2+, Mg^2+ and 20 mM HEPES, adjusted to pH 7.4 (HBSS+).
For calcium dye-loading one FLIPR 6 assay aliquot was dissolved in 20 mL HBSS+. 150 μL of the dye loading solution was added to cell plate and incubated for 120 min at 37° C. and 5% CO2. After dye loading the cell plate was immediately transferred to the pre-warmed (37° C.) Flexstation 3 System for CaM assaying.
Freshly prepared compound (B2 receptor antagonists) dilution series (8 pt, n=2) and bradykinin (B2 receptor agonist) solution in non-binding plates (Costar) were transferred to the Flexstation System (source plate) shortly before starting the experiment. Bradykinin was added in EC80 concentration determined in n>3 preliminary experiments with 8 pt concentration response curves (n=8)). CaM assay was executed by Flexstation 3 System starting with recording of calcium-sensitive dye fluorescence in bottom-read Flex modus with ex/em=485 nm/525 nm, cut off(em)=515 nm After 20 s, 50 μL of 4-fold concentrated compound dilutions were added to the cells resulting in a final DMSO (Sigma) concentration of 0.1% in the cell plate. CaM signals were monitored for 80 s after additions for detection of potential agonistic activities. Prior to bradykinin stimulus compound- and vehicle-treated cells were incubated for 25 min at 37° C. within the Flexstation System. Then 50 μL of a 5-fold concentrated bradykinin solution (HBSS+, 0.1% DMSO) was added to trigger CaM signals (Read out: Max-Min values) which were measured for 80 s post bradykinin stimulus.
IC50 determinations were performed by 4 parameter logistic model curve fitting of the 8 pt (n=2) compound concentration response curves using XLFIT (IDBS) software.

`Cc1cc(-n2cc(F)cn2)c2cccc(OCc3c(Cl)cc(F)cc3[C@@H]3COCCN3C(=O)COC(F)F)c2n1` [Compound No. 1, (R)-1-(3-(3-chloro-5-fluoro-2-((4-(4-fluoro-1H-pyrazol-1-yl)-2-methylquinolin-8-yloxy)methyl)phenyl)morpholino)-2-(difluoromethoxy)ethanone] and `[2H][C@@]1(c2cc(F)cc(Cl)c2COc2cccc3c(-n4cc(F)cn4)cc(C)nc23)COCCN1C(=O)COC(F)F` [Compound No. 1A, 1-[(3R)-3-[3-chloro-5-fluoro-2-({[4-(4-fluoropyrazol-1-yl)-2-methylquinolin-8-yl]oxy}methyl)phenyl](3-deutero)morpholin-4-yl]-2-(difluoromethoxy)ethanone] cannot be ordered by IC50: ≤ 25 nM for the first, ≤ 25 nM for the second.

`Cc1cc(-c2ncnn2C)c2cccc(OCc3c(Cl)cc(F)cc3[C@@H]3COCCN3C(=O)COC(F)F)c2n1` [Compound No. 2, (R)-1-(3-(3-chloro-5-fluoro-2-((2-methyl-4-(1-methyl-1H-1,2,4-triazol-5-yl)quinolin-8-yloxy)methyl)phenyl)morpholino)-2-(difluoromethoxy)ethanone] and `Cc1cc(-c2ncnn2C)c2cccc(OCc3c(Cl)cc(F)cc3[C@@H]3COCCN3C(=O)[C@H](C)O)c2n1` [compound 10] cannot be ordered by IC50: ≤ 25 nM for the first, ≤ 25 nM for the second.

`CC1=N[C@H](c2cc(F)cc(Cl)c2COc2cccc3c(-n4cc(F)cn4)cc(C)nc23)CO1` [Compound No. 3, (R)-4-(3-chloro-5-fluoro-2-((4-(4-fluoro-1H-pyrazol-1-yl)-2-methylquinolin-8-yloxy)methyl)phenyl)-2-methyl-4,5-dihydrooxazole] and `Cc1cc(-n2cc(F)cn2)c2cccc(OCc3c(Cl)cc(F)cc3[C@@H]3COCC(=O)N3)c2n1` [compound 4] fall in the same range of IC50: 501 to 5000 nM for the first, 501 to 5000 nM for the second.

First: Cc1cc(-n2cc(F)cn2)c2cccc(OCc3c(Cl)cc(F)cc3[C@@H]3COCCN3)c2n1 [compound 5]
Second: Cc1cc(-n2cc(F)cn2)c2cccc(OCc3c(Cl)cc(F)cc3[C@@H]3COCCN3C(=O)[C@@H](C)O)c2n1 [compound 6]
The IC50 of the first is higher: 501 to 5000 nM for the first, 26 to 500 nM for the second.

`Cc1cc(-n2cc(F)cn2)c2cccc(OCc3c(Cl)cc(F)cc3[C@@H]3COCCN3C(=O)C(C)(C)O)c2n1` [compound 7] and `Cc1cc(-n2cc(F)cn2)c2cccc(OCc3c(Cl)cc(F)cc3[C@@H]3COCCN3C(=O)c3cnco3)c2n1` [compound 8] fall in the same range of IC50: 26 to 500 nM for the first, 26 to 500 nM for the second.

First: Cc1cc(-c2ncnn2C)c2cccc(OCc3c(Cl)cc(F)cc3[C@@H]3COCCN3C(=O)C(C)(C)O)c2n1 [compound 9]
Second: Cc1cc(-c2ncnn2C)c2cccc(OCc3c(Cl)cc(F)cc3[C@@H]3COCCN3C(=O)c3cnco3)c2n1 [compound 11]
The IC50 of the first is higher: 26 to 500 nM for the first, ≤ 25 nM for the second.

`Cc1cc(-c2ncnn2C)c2cccc(OCc3c(Cl)cc(F)cc3[C@@H]3COCC(=O)N3)c2n1` [compound 12] and `Cc1cc(-c2ncnn2C)c2cccc(OCc3c(Cl)cc(F)cc3[C@@H]3COCCN3)c2n1` [compound 13] fall in the same range of IC50: 26 to 500 nM for the first, 26 to 500 nM for the second.
